Assay results taken from patent publication US10766866B2, “Deterrents for arthropods and marine organisms” (priority 2017, dated 2020).

Key:
Aedes mosquito = test: Protection against mosquito biting and toxicity to mosquitoes; format: in vivo
Volatility = format: physicochemical
[1] = target: T1, DmOctR (Drosophila octopamine receptor), cloned α-like OctR (Drosophila melanogaster, UniProt Q7JQF1); test: OctR activation: change in intracellular calcium (CALCIUM 6QR dye, FlexStation 3) in stably transfected mammalian cells; format: cell-based; conditions: agonist
T1 construct: Gq calcium readout
T1 sequence (Q7JQF1 1-645): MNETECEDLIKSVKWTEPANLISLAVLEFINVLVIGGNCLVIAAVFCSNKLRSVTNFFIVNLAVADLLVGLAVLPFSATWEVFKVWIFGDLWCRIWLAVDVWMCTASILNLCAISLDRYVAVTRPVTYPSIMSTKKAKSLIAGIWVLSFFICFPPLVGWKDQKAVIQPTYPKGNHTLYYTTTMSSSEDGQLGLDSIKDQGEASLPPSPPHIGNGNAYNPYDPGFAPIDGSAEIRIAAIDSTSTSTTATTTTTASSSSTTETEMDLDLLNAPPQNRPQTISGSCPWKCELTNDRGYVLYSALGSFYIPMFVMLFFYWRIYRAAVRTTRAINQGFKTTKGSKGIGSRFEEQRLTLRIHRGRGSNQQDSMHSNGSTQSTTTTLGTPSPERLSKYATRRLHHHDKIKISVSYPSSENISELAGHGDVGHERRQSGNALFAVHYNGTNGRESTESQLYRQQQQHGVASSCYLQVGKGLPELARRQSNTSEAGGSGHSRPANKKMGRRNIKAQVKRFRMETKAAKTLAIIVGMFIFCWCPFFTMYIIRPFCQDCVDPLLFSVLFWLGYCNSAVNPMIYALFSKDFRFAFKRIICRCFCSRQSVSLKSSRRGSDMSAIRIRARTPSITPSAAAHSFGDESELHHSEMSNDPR
Description: (§1) Functional expression of cloned arthropod OctRs and human α2-ARs: The cDNAs for α-like OctRs from different arthropod species (e.g., Anopheles gambiae, Aedes aegypti, Periplaneta americana, Drosophila melanogaster, Ixodes scapularis, Balanus improvises) and for α2-AR subtypes from humans were individually subcloned into mammalian expression vectors. These plasmids, which harbor a resistance gene for the selection drug G418 and the cDNA sequence for the receptor of interest, were individually transfected into mammalian cells using a calcium phosphate precipitation method. G418 selection was then employed to generated stable clonal cell lines. Utilizing rapid filtration radioligand binding techniques, the cell surface density of receptor expression of the individual clonal cell lines was determined at equilibrium and those with similar high levels of expression were selected for further experiments. Briefly, binding conditions were 50 mM Tris binding buffer pH 7.4 at 25° C. and an ice-cold wash buffer 10 mM Tris-HCl, pH 7.4). The radioligand was [3H]rauwolscine and non-specific binding was determined in the presence of 10 μM atipamezole. Following the addition of membranes prepared from the clonal cell lines, samples were mixed and allowed 2 hr. to reach equilibrium before rapid filtration and washing through 0.3% PEI-treated GF/C filters. The radioactivity remaining on the filters was quantified by scintillation counting. Receptor density (Bmax) was back calculated knowing the specific activity of the radioligand and applying the equation for a square hyperbola model: Bmax=(Y·(KD+X))/X, where Y is [specifically bound radioligand] and X=[radio ligand concentration]. The affinity (KD) for the radioligand for each receptor was determined in separate saturation isotherm binding experiments using the same binding conditions as describe above.
(§2) Measurement of OctR activation by measuring changes in intracellular calcium: Activation of arthropod α-like OctRs increases intracellular calcium via a Gq-coupling mechanism. This involves activation of phospholipase C leading to an increase in intracellular inositol triphosphate (IP3) which then activates IP3-gated calcium channels in the endoplasmic reticulum causing a transient rise in intracellular calcium. These changes in intracellular calcium upon OctR activation were measured by loading cells with intracellular calcium sensitive dye CALCIUM 6QR and reading the change in calcium-induced fluorescent signal over time on a FlexStation 3 microplate reader.

[2] = target: T2, AgAOctR (Anopheles octopamine receptor isoform A), cloned α-like OctR (Anopheles gambiae, UniProt Q7PRZ8); test: as above; format: cell-based; conditions: agonist
T2 construct: Gq calcium readout
T2 sequence (Q7PRZ8 1-592): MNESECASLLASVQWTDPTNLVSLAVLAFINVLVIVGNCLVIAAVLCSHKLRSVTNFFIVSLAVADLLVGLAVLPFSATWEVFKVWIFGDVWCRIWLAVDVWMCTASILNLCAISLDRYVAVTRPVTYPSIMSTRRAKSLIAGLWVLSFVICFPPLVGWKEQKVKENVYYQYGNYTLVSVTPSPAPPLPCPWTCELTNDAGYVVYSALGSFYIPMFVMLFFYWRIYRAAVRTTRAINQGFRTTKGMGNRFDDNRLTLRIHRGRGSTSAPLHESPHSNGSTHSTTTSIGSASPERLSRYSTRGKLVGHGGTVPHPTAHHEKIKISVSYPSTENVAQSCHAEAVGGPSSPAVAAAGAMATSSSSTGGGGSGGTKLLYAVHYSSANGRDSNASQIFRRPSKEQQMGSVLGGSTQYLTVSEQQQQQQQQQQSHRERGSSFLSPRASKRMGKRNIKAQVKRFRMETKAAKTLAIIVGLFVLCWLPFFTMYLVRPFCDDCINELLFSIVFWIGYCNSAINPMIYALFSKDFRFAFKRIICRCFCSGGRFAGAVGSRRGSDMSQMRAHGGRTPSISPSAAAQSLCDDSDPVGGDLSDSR
Description: as §1, §2

[3] = target: T3, PaOctR (Periplaneta octopamine receptor), cloned α-like OctR (Periplaneta americana, UniProt Q7YWB7); test: as above; format: cell-based; conditions: agonist
T3 construct: Gq calcium readout
T3 sequence (Q7YWB7 1-628): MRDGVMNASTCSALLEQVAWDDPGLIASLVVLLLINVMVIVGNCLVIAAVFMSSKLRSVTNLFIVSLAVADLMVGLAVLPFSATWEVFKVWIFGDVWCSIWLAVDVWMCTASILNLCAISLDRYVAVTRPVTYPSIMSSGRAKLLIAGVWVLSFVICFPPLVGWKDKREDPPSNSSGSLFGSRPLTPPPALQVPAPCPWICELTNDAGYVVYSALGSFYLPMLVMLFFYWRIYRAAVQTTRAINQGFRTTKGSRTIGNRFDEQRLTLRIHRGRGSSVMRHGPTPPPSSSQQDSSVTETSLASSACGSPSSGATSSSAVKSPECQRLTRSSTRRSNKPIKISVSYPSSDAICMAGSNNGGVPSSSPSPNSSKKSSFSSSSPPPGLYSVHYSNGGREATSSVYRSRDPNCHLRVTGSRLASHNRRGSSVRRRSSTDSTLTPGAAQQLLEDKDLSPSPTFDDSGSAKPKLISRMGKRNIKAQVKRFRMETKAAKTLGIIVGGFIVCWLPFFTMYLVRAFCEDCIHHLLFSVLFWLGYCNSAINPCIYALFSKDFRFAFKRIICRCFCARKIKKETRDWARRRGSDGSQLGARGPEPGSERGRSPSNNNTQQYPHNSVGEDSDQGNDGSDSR
Description: as §1, §2

[4] = system: AeOctR (Aedes octopamine receptor), cloned α-like OctR; test: as above; format: cell-based, Aedes aegypti; conditions: agonist
Description: as §1, §2

C=C(c1cnc[nH]1)c1cccc(C)c1C [AZ0027]
protection against mosquito biting (Aedes mosquito; Aedes mosquito): protects against Aedes mosquito biting | toxicity to mosquitoes (Aedes mosquito; DEET: at the lowest concentration that produces maximal protection against biting (LC50)): non-toxic to mosquitoes | potency relative to DEET (Aedes mosquito; protection against mosquito biting): over 500 fold | volatility (Volatility): low volatility | EC50 [1]: 8.7 ± 2.7 nM | EC50 [2]: 0.013 ± 0.0046 nM | EC50 [3]: 0.44 ± 0.23 nM | EC50 [4]: 12 ± 3.2 nM
